These results are taken from publication PMC8163506, “A novel ATP dependent dimethylsulfoniopropionate lyase in bacteria that releases dimethyl sulfide and acryloyl-CoA” (eLife, 2021).

The target in the test is T1, DddX (Psychrobacter sp., UniProt Z9QGV9JXN0).
T1 construct: full length (2247 bp gene), pET-22b, C-terminal His tag, E. coli BL21(DE3); dimer in solution
T1 sequence (Z9QGV9JXN0 1-748): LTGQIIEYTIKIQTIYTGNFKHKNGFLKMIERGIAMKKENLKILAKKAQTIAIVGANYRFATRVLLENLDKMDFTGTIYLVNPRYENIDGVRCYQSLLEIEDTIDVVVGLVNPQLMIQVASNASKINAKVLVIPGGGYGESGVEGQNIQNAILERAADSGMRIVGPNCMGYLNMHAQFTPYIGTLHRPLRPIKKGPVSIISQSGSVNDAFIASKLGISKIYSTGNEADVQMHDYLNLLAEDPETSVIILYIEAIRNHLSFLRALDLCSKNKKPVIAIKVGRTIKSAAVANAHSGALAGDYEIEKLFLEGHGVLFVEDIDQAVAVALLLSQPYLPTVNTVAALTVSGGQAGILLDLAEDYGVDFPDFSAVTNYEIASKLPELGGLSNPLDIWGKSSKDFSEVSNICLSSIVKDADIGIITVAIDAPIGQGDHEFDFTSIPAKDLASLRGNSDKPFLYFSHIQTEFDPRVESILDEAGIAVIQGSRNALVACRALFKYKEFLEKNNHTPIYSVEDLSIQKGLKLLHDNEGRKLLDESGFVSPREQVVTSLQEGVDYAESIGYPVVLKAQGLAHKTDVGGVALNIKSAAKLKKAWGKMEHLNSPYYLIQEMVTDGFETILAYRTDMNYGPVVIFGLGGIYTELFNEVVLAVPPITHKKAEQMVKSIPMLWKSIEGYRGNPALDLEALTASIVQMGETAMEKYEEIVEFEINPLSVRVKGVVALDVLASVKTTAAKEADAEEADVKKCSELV
As to the kind of experiment: X-ray crystal structure of complex. It counts as binding. The following applies: 1 mM ATP incubated with protein; ATP-grasp domain; crystals at pH 5.5, 18 °C.

Regarding `Nc1ncnc2c1ncn2[C@@H]1O[C@H](COP(=O)(O)OP(=O)(O)OP(=O)(O)O)[C@@H](O)[C@H]1O` [ATP], the “X-ray crystal structure of complex” value was “we solved the crystal structure of DddX in complex with ATP”.
